In patent US10759796B2, “CXCR4 inhibitors and uses thereof” (X4 Pharmaceuticals, Inc., priority 2016, dated 2020):
pIC50: −log10 of the molar value.

What was measured:
in vitro = settings: human, Caco-2, pH 7.4
Experimental: Example 28: Caco-2 Permeability Assay
The goal of this assay was to evaluate the intestinal absorption potential of drug candidates using Caco-2 cell lines.
1. Prewarm Prewarm HBSS Buffer in 37° C. water bath
2. Sonicate Take compounds from −20° C., sonicate for a few minutes (no less than 1 minute)
HBSS buffer with 0.3% DMSO and 5 μM LY: add 150 μL DMSO and 50 μL LY (5 mM) into 50 ml HBSS buffer (pH 7.4).
HBSS buffer with 0.1% DMSO and 5 μM LY: add 50 μL DMSO and 50 μL LY (5 mM) into 50 mL HBSS buffer (pH 7.4).
HBSS buffer with 0.3% DMSO: add 150 μL DMSO into 50 ml HBSS buffer (pH 7.4).
HBSS buffer with 0.1% DMSO: add 50 μL DMSO into 50 ml HBSS buffer (pH 7.4).
Receiver Solution Buffer:
Prepare HBSS buffer with 0.4% DMSO: add 200 μL DMSO into 50 ml HBSS buffer (pH 7.4).
Prepare HBSS buffer with 0.4% DMSO and 5 μM LY: add 200 μL DMSO and 50 μL LY (5 mM) into 50 ml HBSS buffer (pH 7.4).
4. Measure TEER Take cell culture plate out of incubator, wash the cell monolayers with HBSS buffer, and then measure TEER values at Rm temperature. 5. Centrifuge Centrifuge the compound solution (from step 3) at 4000 rpm for 5 min before loading to donor chambers. 6. Dosing Add solution based on the volumes listed in the following table (make sure to take extra 100 μL of donor sample for TO as Backup).
7. Apical LYT0 Samples To determine LY concentration in the apical chember, take 100 μL sample from apical chambers into an opaque plate for LYT0. 8. Prewarm Prewarm apical and basolateral plates at 37° C. for about 5 min, then begin transport by placing the apical plate onto basolateral plate. 9. Incubation Keep the plates in incubator at 37° C. for 90 min. 10. Standard Curve Preparation
For 300 μM compound solution, add 6 μL of compound stock solution into 192 μL of MeOH/H2O (1:1).
Prepare Working Solution in MeOH/H2O (1:1)
3 μL (20×)+57 μL of 0.4% DMSO HBSS+60 μL ACN with IS (Osalmid or Imipramine) - - - 120 μL (1×)
11. Transport Termination Separate the apical plate from the basolateral plate after 90-min incubation.
12. Measure LY Take 100 μL samples from basolateral plate to an opaque plate as LYT90.
13. Measure LY concentrations for LYT0 and LYT90 by Fluorometer (at excitation of 485 nm/emission of 535 nm).
Study details: Test concentration 10 μM
Test systems: Caco-2/HBSS solution
Incubation conditions: 0, 90 min at 37° C.
Sample size: Duplicates (n=2)
Bioanalytical method: LC-MS/MS
For Millicell-24 Cell Culture Plates: surface area of the membrane=0.7 cm^2, VA=0.8 mL (A-to-B) or 0.4 mL (B-to-A)
1. Papp values were calculated based on calculated concentrations.
The compound numbers correspond to the compound numbers in Table 1.

[1] = molecular target: CXCR-4 transfected U87 cell line (U87.CXCR4) (Homo sapiens (Human), UniProt P61073); experiment: Intracellular CXCL-12-induced calcium mobilization assay (FLIPR); assay type: cell-based; settings: U87.CXCR4 cells, CXCL-12 25-50 ng/mL; read-out: IC50 CXCL-12 Ca2+ flux U87.CXCR4+
Sequence of CXCR-4 transfected U87 cell line (U87.CXCR4) (P61073 whole entry): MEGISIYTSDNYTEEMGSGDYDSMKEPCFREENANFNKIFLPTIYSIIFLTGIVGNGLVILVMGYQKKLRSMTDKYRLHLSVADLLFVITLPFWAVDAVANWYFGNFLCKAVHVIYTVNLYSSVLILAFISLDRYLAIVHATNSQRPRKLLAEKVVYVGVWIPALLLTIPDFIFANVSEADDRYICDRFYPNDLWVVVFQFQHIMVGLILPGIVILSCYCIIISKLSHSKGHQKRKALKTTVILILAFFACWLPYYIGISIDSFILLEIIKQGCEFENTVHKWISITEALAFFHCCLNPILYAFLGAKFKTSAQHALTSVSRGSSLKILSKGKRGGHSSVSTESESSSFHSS
Experimental: Example 28: REGA Screening Assay
Intracellular CXCL-12-Induced Calcium Mobilization Assay
Intracellular calcium mobilization induced by chemokines or chemokine-derived peptides were evaluated using a calcium responsive fluorescent probe and a FLIPR system. The CXCR-4 transfected U87 cell line (U87.CXCR4) cells were seeded in gelatine-coated black-wall 96-well plates at 20,000 cells per well and incubated for 12 hours. Cells were then loaded with the fluorescent calcium probe Fluo-2 acetoxymethyl at 4 μM final concentration in assay buffer (Hanks' balanced salt solution with 20 mM HEPES buffer and 0.2% bovine serum albumin, pH 7.4) for 45 min at 37° C. The intracellular calcium mobilization induced by the CXCL-12 (25-50 ng/mL) was then measured at 37° C. by monitoring the fluorescence as a function of time in all the wells simultaneously using a fluorometric imaging plate reader (FLIPR Tetra, Molecular Devices).

[2] = molecular target: Jurkat cells expressing CXCR4 (Homo sapiens (Human), UniProt P61073); experiment: Chemokine (CXCL12-AF647) binding inhibition assay; settings: CXCL12-AF647 25 ng/mL, read-out: IC50 CXCL-12 binding Jurkat
Sequence of Jurkat cells expressing CXCR4 (P61073 whole entry): as above
Experimental: Chemokine (CXCL12-AF647) Binding Inhibition Assay
Jurkat cells expressing CXCR4 were washed once with assay buffer (Hanks' balanced salt solution with 20 mM HEPES buffer and 0.2% bovine serum albumin, pH 7.4) and then incubated for 15 min at room temperature with the test compounds diluted in assay buffer at dose-dependent concentrations. Subsequently, CXCL12-AF647 (25 ng/mL) was added to the compound-incubated cells. The cells were incubated for 30 min at room temperature. Thereafter, the cells were washed twice in assay buffer, fixed in 1% paraformaldehyde in PBS, and analyzed on the FL4 channel of a FACSCalibur flow cytometer equipped with a 635-nm red diode laser (Becton Dickinson, San Jose, Calif., USA).
The percentages of inhibition of CXCL12-AF647 binding were calculated according to the formula: [1−((MFI−MFINC)/(MFIPC−MFINC))]×100 where MFI is the mean fluorescence intensity of the cells incubated with CXCL12-AF647 in the presence of the inhibitor, MFINC is the mean fluorescence intensity measured in the negative control (i.e., autofluorescence of unlabeled cells), and MFIPC is the mean fluorescence intensity of the positive control (i.e., cells exposed to CXCL12-AF647 alone).

Row | Papp A→B at 90 min, 10 μM (in vitro) [×10⁻⁶ cm/s] | Papp B→A at 90 min, 10 μM (in vitro) [×10⁻⁶ cm/s] | efflux ratio at 90 min, 10 μM (in vitro) | pIC50 [1] | pIC50 [2] | Papp at 90 min, 10 μM (in vitro) [×10⁻⁶ cm/s] | SMILES
1 | 10 to 30 | 0.1 to 10 | 0.1 to 10 | 6.00 to 7.00 | 7.00 to 11.00 | – | Cc1cccnc1[C@@H]1CCC[C@H](c2nc3cccc(N4CCN(C5CC5)CC4)n3c2Cl)N1C [Compound I-93]
2 | 0.1 to 10 | 10 to 30 | 0.1 to 10 | ≤ 6.00 | 6.00 to 7.00 | – | Cc1cccnc1[C@@H]1CCC[C@H](c2nc3ccccn3c2N2CCN(C)CC2)N1 [Compound I-154]
3 | 0.1 to 10 | 10 to 30 | 10 to 30 | 7.00 to 11.00 | 7.00 to 11.00 | – | Cc1cccnc1[C@@H]1CCC[C@H](c2cn3c(N4CCN(C)CC4)cccc3n2)N1CCO [Compound I-87]
4 | 0.1 to 10 | 10 to 30 | 0.1 to 10 | 7.00 to 11.00 | 7.00 to 11.00 | – | Cc1cccnc1[C@@H]1CCC[C@H](c2nc3ccccn3c2N2CCN(C)CC2)N1C [Compound I-152]
5 | 0.1 to 10 | 0.1 to 10 | 10 to 30 | 7.00 to 11.00 | 7.00 to 11.00 | – | CNCCCc1c([C@@H]2CCC[C@H](c3ncccc3C)N2C)nc2ccccn12 (stereo in doubt) [Compound I-27]
6 | – | – | – | ≤ 6.00 | ≤ 6.00 | – | Cc1cccnc1[C@@H]1CCC[C@H](c2nc3ccccn3c2CCC#N)N1 [Compound I-219]
7 | – | – | – | ≤ 6.00 | ≤ 6.00 | – | Cc1cccnc1[C@@H]1CCC[C@H](c2cn3c(-c4cccnc4)cccc3n2)N1 [Compound I-215]
8 | – | – | – | 7.00 to 11.00 | 7.00 to 11.00 | – | Cc1cccnc1[C@@H]1CCC[C@H](c2cn3ccccc3n2)N1CCn1cccn1 [Compound I-10]
9 | – | – | – | ≤ 6.00 | 6.00 to 7.00 | – | CCOCc1c([C@H]2CCC[C@@H](c3ncccc3C(C)C)N2C)nc2cccc(N3CCN(CC)CC3)n12 [Compound I-59]
10 | – | – | – | ≤ 6.00 | 6.00 to 7.00 | – | Cc1cccnc1[C@@H]1CCC[C@H](c2cn3c(N4CCN(C)CC4=O)cccc3n2)N1 [Compound I-211]
11 | – | – | – | 6.00 to 7.00 | 6.00 to 7.00 | – | Cc1cccnc1[C@@H]1CCC[C@H](c2cn3ccccc3n2)N1CCCCN [Compound I-2]
12 | – | – | – | – | ≤ 6.00 | – | Cc1cccnc1[C@@H]1CCC[C@H](c2nc3ccccn3c2-c2ccccn2)N1 [Compound I-209]

More lines, now with the values behind:

Row | SMILES | Papp A→B at 90 min, 10 μM (in vitro) [×10⁻⁶ cm/s] | Papp B→A at 90 min, 10 μM (in vitro) [×10⁻⁶ cm/s] | efflux ratio at 90 min, 10 μM (in vitro) | pIC50 [1] | pIC50 [2] | Papp at 90 min, 10 μM (in vitro) [×10⁻⁶ cm/s]
13 | CC[C@@H](O)c1c([C@H]2CCC[C@@H](c3ncccc3C)N2C)nc2cccc(N3CCN(C)CC3)n12 [Compound I-139] | 0.1 to 10 | > 30 | > 30 | 6.00 to 7.00 | 7.00 to 11.00 | –
14 | COc1cccnc1[C@@H]1CCC[C@H](c2cn3c(N4CCNC5(CC5)C4)cccc3n2)N1 [Compound I-172] | 0.1 to 10 | > 30 | > 30 | ≤ 6.00 | ≤ 6.00 | –
15 | Cc1cccnc1[C@@H]1CCC[C@H](c2nc3cccc(N4CCN(C(C)C)CC4)n3c2CO)N1C [Compound I-50] | 0.1 to 10 | 10 to 30 | 10 to 30 | 7.00 to 11.00 | 7.00 to 11.00 | –
16 | CC[C@H]1OC(=O)[C@H](C)[C@@H](O[C@H]2C[C@@](C)(OC)[C@@H](O)[C@H](C)O2)[C@H](C)[C@@H](O[C@@H]2O[C@H](C)C[C@H](N(C)C)[C@H]2O)[C@](C)(O)C[C@@H](C)C(=O)[C@H](C)[C@@H](O)[C@]1(C)O [Erythromycin, reference compound] | – | – | > 116 | – | – | –
17 | CO[C@H](c1c([C@H]2CCC[C@@H](c3ncccc3C)N2C)nc2ccccn12)C1CCN(C)CC1 [Compound I-104] | 0.1 to 10 | 10 to 30 | > 30 | 6.00 to 7.00 | 7.00 to 11.00 | –
18 | Cc1cccnc1[C@@H]1CCC[C@H](c2nc3ccccn3c2[C@H](O)C2CCN(C)CC2)N1C [Compound I-55] | 0.1 to 10 | 0.1 to 10 | 0.1 to 10 | ≤ 6.00 | 7.00 to 11.00 | –
19 | CCN1CCN(Cc2c([C@H]3CCC[C@@H](c4ncccc4C)N3C)nc3ccccn23)CC1 [Compound I-40] | 0.1 to 10 | > 30 | > 30 | 7.00 to 11.00 | 7.00 to 11.00 | –
20 | Cc1cccnc1[C@H]1CCC[C@@H](c2nc3ccccn3c2CCCN2CCN(C)CC2)N1C (stereo in doubt) [Compound I-25] | 0.1 to 10 | 10 to 30 | > 30 | 7.00 to 11.00 | 7.00 to 11.00 | –
21 | Cc1cccnc1[C@@H]1CCC[C@H](c2cn3c(-c4ccnn4C)cccc3n2)N1 [Compound I-212] | – | – | – | ≤ 6.00 | ≤ 6.00 | –
22 | CN1CCN(c2cccc3nc([C@H]4CCC[C@@H](c5ncccc5C(F)(F)F)N4C)c(Cl)n23)CC1 [Compound I-119] | – | – | – | ≤ 6.00 | 7.00 to 11.00 | –
23 | Cc1cccnc1[C@@H]1CCC[C@H](c2cn3c(-c4ccncc4)cccc3n2)N1C [Compound I-5] | – | – | – | 6.00 to 7.00 | 7.00 to 11.00 | –
24 | Cc1cccnc1[C@@H]1CCC[C@H](c2cn3c(-c4ccccn4)cccc3n2)N1 [Compound I-216] | – | – | – | ≤ 6.00 | ≤ 6.00 | –
25 | Cc1cccnc1[C@@H]1CCC[C@H](c2cn3c(CCc4ccccn4)cccc3n2)N1C [Compound I-7] | – | – | – | ≤ 6.00 | 6.00 to 7.00 | –
26 | Cc1cccnc1[C@@H]1CCC[C@H](c2cn3c(-c4cncn4C)cccc3n2)N1 [Compound I-213] | – | – | – | ≤ 6.00 | ≤ 6.00 | –
27 | COCCc1ccc(OCC(O)CNC(C)C)cc1 (centres unmarked) [Metoprolol, reference compound] | – | – | – | – | – | > 10
28 | Cc1cccnc1[C@H]1CCC[C@@H](c2nc3ccccn3c2CCCN)N1C (stereo in doubt) [Compound I-26] | – | – | – | 6.00 to 7.00 | 7.00 to 11.00 | –
29 | Cc1cccnc1[C@@H]1CCC[C@H](c2cn3c(-c4ccncc4)cccc3n2)N1 [Compound I-214] | – | – | – | ≤ 6.00 | ≤ 6.00 | –
30 | Cc1cccnc1[C@@H]1CCC[C@H](c2cn3ccccc3n2)N1CCc1ccccn1 [Compound I-8] | – | – | – | 7.00 to 11.00 | 7.00 to 11.00 | –
31 | CC(C)c1cccnc1[C@@H]1CCC[C@H](c2nc3cccc(N4CCN(C)CC4)n3c2CO)N1C [Compound I-74] | – | – | – | ≤ 6.00 | 6.00 to 7.00 | –
